Measured values from article PMC9837035 (Nature Communications, 2023).
“And” between values parts separate entries of the source, which are not always exact repeats. Equal entries are not always repeated.

Experiments:
[1] = test system: BGLT3 RNA in HUDEP-2 cells; assay: RT-qPCR of BGLT3 in HUDEP-2 cells; format: cell-based, human; conditions: for BGLT3 expression in HUDEP-2 cells: relative to DMSO = 1, replicate values
Summary of the method: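 Total RNA reverse-transcribed to cDNA, then target transcripts quantified by SYBR Green real-time qPCR. Expression normalized to GAPDH as reference gene.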

mice = assay: Mouse acute toxicity assay, survival; format: in vivo; conditions: intravenous, 2-week observation
Experimental: All animal studies were approved by the Institutional Committee for Animal Experiments of the Institute of Microbial Chemistry, and were performed in accordance with relevant guidelines and regulations to minimize animal suffering. Four-week-old female ICR mice were purchased from Charles River Breeding Laboratories (Yokohama, Japan) and maintained in a specific pathogen-free barrier facility. […] Samples were dissolved in saline containing 10% DMSO and 1% Tween 80 and injected intravenously into mice.

HUDEP-2 cells = assay: Cell viability assay (WST-8), HUDEP-2; format: cell-based, human; conditions: for cell viability in HUDEP-2 cells: control (0 μM) = 100
Experimental: (§1) A WST-8 (2-(2-methoxy-4-nitrophenyl)-3-(4-nitrophenyl)-5-(2,4-disulfophenyl)-2H-tetrazolium) assay using a Cell Counting Kit-8 (DOJINDO) was performed to measure cell viability using an EnSpire microplate reader (PerkinElmer).

[2] = Cell viability assay (WST-8), HUDEP-2; format: cell-based, human; conditions: human, HUDEP-2 cells, control (0 μM) = 100
Experimental: as §1

[3] = test system: β- and γ-globin genes in HUDEP-2 cells; assay: RT-qPCR of β- and γ-globin in HUDEP-2 cells; format: cell-based, human; conditions: for β-globin expression in HUDEP-2 cells / γ-globin expression in HUDEP-2 cells: relative to DMSO = 1, replicate values
Experimental: Total cellular RNA was prepared using the Tissue Total RNA Mini Kit (FAVORGEN), and cDNA was synthesized using ReverTra Ace Master Mix (TOYOBO). Expression of target genes was analyzed using THUNDERBIRD SYBR qPCR Mix (TOYOBO) on a CFX Connect Real Time System (Bio-Rad). The qPCR data were acquired on CFX Maestro (Bio-Rad). Primers are listed in Supplementary Table 10. GAPDH was used as a reference. Primers were purchased from INTEGRATED DNA TECHNOLOGIES or FASMAC.

H3K9me2 in HUDEP-2 cells = assay: Western blotting of H3K9me2 in HUDEP-2 cells; format: cell-based, human; conditions: HUDEP-2, 4 days
Experimental: Preparation of cell lysates and western blotting were performed as described previously. Protein from cells lysates in lysis buffer (50 mM Tris-HCl (pH 7.5), 150 mM NaCl, 5 mM EDTA, 0.1% NP-40, 1 mM dithiothreitol) were separated by sodium dodecyl sulfate–polyacrylamide gel electrophoresis (SDS-PAGE) and transferred to a polyvinylidene difluoride (PVDF) membrane (Millipore) by electroblotting. The membranes incubated with primary antibodies overnight at 4 °C and secondary antibodies for 1 h at room temperature. The immune complexes were detected with the Immobilon Western Chemiluminescent HRP Substrate (Millipore). Luminescence was analyzed on a FUSION SOLO S (Vilber). Western blot bands were visualized using Evolution Capt software (M&S Instruments Inc.). Primary antibodies used were anti-G9a (1:1000, CST, #3306), anti–α-tubulin (1:5000, Abcam, ab18251), anti-H3K9me2 (1:3000, Abcam, ab1220), anti-H3 (1:5000, Abcam, ab1791), anti-H3K27me3 (1:3000, Sigma, 07-449), anti-GLP (1:1000, CST, #35005), anti-FLAG (100 ng/ml, Fujifilm, 01422383), anti-His (1:5000, MBL, PM032), anti-BCL11A (1:1000, abcam, ab19487), anti-ZBTB7A (1:1000, CST, #50565), anti-CHD3 (1:1000, Novus Biologicals, NB100-60412), and anti-CHD4 (1:1000, abcam, ab240640). Uncropped scans of all of the blots are available in Source Data file.

[4] = test system: rat myoblast cell line H9c2; assay: Cell viability assay (WST-8), H9c2; format: cell-based; conditions: control (0 μM) = 100
Experimental: as §1

[5] = Cell viability assay (WST-8), H9c2; format: cell-based, rat; conditions: rat, H9c2 myoblast cells, control (0 μM) = 100
Experimental: as §1

Structure (SMILES): COc1cc2c(NC3CCN(C(C)C)CC3)nc(C3CCCCC3)nc2cc1OCCCN1CCCC1 [UNC0638]
- BGLT3 expression in HUDEP-2 cells ([1]; 0.01 μM): 1.173 and 1.9605 and 1.436
- BGLT3 expression in HUDEP-2 cells ([1]; 0.03 μM): 1.045 and 1.983 and 1.934
- BGLT3 expression in HUDEP-2 cells ([1]; 0.1 μM): 1.162 and 3.201 and 2.863
- BGLT3 expression in HUDEP-2 cells ([1]; 0.3 μM): 3.578 and 5.267 and 5.078
- BGLT3 expression ([1]; HUDEP-2): induced the expression of both BGLT3 and γ-globin
- Number of alive mice (mice; 1.5625 mg/kg): 3/3
- Number of alive mice (mice; 3.125 mg/kg): 3/3
- Number of alive mice (mice; 6.25 mg/kg): 0/3
- Number of alive mice (mice; 12.5 mg/kg): 0/3
- Number of alive mice (mice; 25 mg/kg): 0/3
- cell viability in HUDEP-2 cells (HUDEP-2 cells; 0.00457247 μM): 93.1765 and 99.8296
- cell viability in HUDEP-2 cells (HUDEP-2 cells; 0.0137174 μM): 92.549 and 98.1261
- cell viability in HUDEP-2 cells (HUDEP-2 cells; 0.0411523 μM): 91.9216 and 96.0818
- cell viability in HUDEP-2 cells (HUDEP-2 cells; 0.123457 μM): 90.9804 and 93.0153
- cell viability in HUDEP-2 cells (HUDEP-2 cells; 0.37037 μM): 82.1961 and 79.7274
- cell viability in HUDEP-2 cells (HUDEP-2 cells; 1.11111 μM): 35.1373 and 35.4344
- cell viability in HUDEP-2 cells (HUDEP-2 cells; 10 μM): 4.078 and 3.407
- cytotoxic effect on viability (HUDEP-2 cells; HUDEP-2, 3 days): severe cell toxicity
- viability at 0.00457247 μM ([2]; 0.00457247 μM): 97.7%
- viability at 0.0137174 μM ([2]; 0.0137174 μM): 96.8%
- viability at 0.0411523 μM ([2]; 0.0411523 μM): 103%
- viability at 0.123457 μM ([2]; 0.123457 μM): 98.7%
- viability at 0.37037 μM ([2]; 0.37037 μM): 83.3%
- viability at 1.11111 μM ([2]; 1.11111 μM): 36%
- viability at 10 μM ([2]; 10 μM): 2.19%
- β-globin expression in HUDEP-2 cells ([3]; 0.01 μM): 1.0792 and 0.9641 and 1.119
- γ-globin expression in HUDEP-2 cells ([3]; 0.01 μM): 2.161 and 1.8663 and 1.942
- β-globin expression in HUDEP-2 cells ([3]; 0.03 μM): 0.8727 and 0.8955 and 0.9796
- γ-globin expression in HUDEP-2 cells ([3]; 0.03 μM): 2.931 and 2.632 and 2.938
- β-globin expression in HUDEP-2 cells ([3]; 0.1 μM): 0.7919 and 0.6648 and 0.9576
- γ-globin expression in HUDEP-2 cells ([3]; 0.1 μM): 3.187 and 2.85 and 3.299
- β-globin expression in HUDEP-2 cells ([3]; 0.3 μM): 0.6454 and 0.4522 and 0.612
- γ-globin expression in HUDEP-2 cells ([3]; 0.3 μM): 4.136 and 2.987 and 3.803
- γ-globin mRNA level ([3]; HUDEP-2): induced the expression of both BGLT3 and γ-globin
- cellular H3K9me2 levels (H3K9me2 in HUDEP-2 cells): reduction of H3K9me2 levels
- cell viability in H9c2 cells ([4]; 0.039 μM): 83.333 and 114.948 and 83.569
- cell viability in H9c2 cells ([4]; 0.156 μM): 95.490 and 88.952
- cell viability in H9c2 cells ([4]; 0.625 μM): 87.887 and 83.853
- viability at 0.156 μM ([5]; 0.156 μM): 90.4%
- viability at 0.625 μM ([5]; 0.625 μM): 92.4%
